According to patent publication US20230174975A1 (priority 2020, published 2023):
Structures can show the parent of a compound that is named as a salt. Where two headings read alike, the source gives them in different places.

How the values were obtained:
229E virus = experiment: organism not typed; format: cell-based, human 229E coronavirus; settings: for combination effect with Camostat mesylate (in words) / combination effect with IFNα 4b (in words) / inhibition of virus replication: PAC-MAN with the guide; for inhibition of virus replication: no drug, 24 hpi, vs NT6
[1] = test system: transmembrane protease, serine 2 (TMPRSS2); experiment: Knockdown of endogenous gene in A549 cells by Cas13d and crRNAs (qPCR); format: cell-based, human; settings: 3 days
[2] = test system: methylenetetrahydrofolate dehydrogenase 1 (MTHFD1); experiment: as above; format: cell-based, human; settings: 3 days
229E [3] = format: cell-based, human 229E coronavirus
229E [4] = format: cell-based, human 229E coronavirus; remark: listed apart in the source
SARS-CoV-2 = format: cell-based; settings: supernatant test, SARS-CoV-2 MOI=0.01
[5] = single agent alone, vs control (NT)

R19: crRNA targeting SARS-CoV-2 RdRP sequence (Table 8); not 229E crR19 (guide CACCATCGTAACAATCAAAGTA; chemistry not given here)
combination effect with Camostat mesylate (in words) (229E virus): promising synergistic effect
combination effect with IFNα 4b (in words) (229E virus): minus effect
inhibition of virus replication (229E virus): 50%

SEQ ID NO: 13605: crRNA targeting endogenous gene TMPRSS2 (guide TACAGCGTAAAGAAACCACTGCT; chemistry not fully specified)
knockdown of TMPRSS2 mRNA (in words) [1]: efficiently knocked down

SEQ ID NO: 13606: crRNA targeting endogenous gene MTHFD1 (guide CAATATCATAAAAACAGGGCCGG; chemistry not fully specified)
knockdown of MTHFD1 mRNA (in words) [2]: efficiently knocked down

crN1: crRNA (guide) targeting N gene of human 229E coronavirus; not N1 of Table 9 (guide AGCCCAUUUGACUGUAGCCAUC; chemistry not given here)
inhibition of virus replication (229E [3]): about 80%
cells alive (229E [4]): more than 90%

crR8: crRNA (guide) targeting RdRP of human 229E coronavirus (guide AAUCUUUAAUUGCAGCAUCACC; chemistry not given here)
inhibition of virus replication (229E [3]): about 80%

crR19: crRNA (guide) targeting RdRP of human 229E coronavirus; not R19 of Table 9 (guide CCAGCAGAAAUAAUACGGCUAG; chemistry not given here)
inhibition of virus replication (229E [3]): about 80%

CN(C)C(=O)COC(=O)Cc1ccc(OC(=O)c2ccc(NC(=N)N)cc2)cc1 [Camostat mesylate, reference compound]
EC50 (229E virus): ~500 µM
combination effect of the drug with PAC-MAN (in words) (229E virus): synergistic effects
fold decrease of virus titer (229E virus; [5]): 2.4 fold
cytotoxicity: no obvious cytotoxicity

N20: crRNA tested against live SARS-CoV-2 in Cas13d VeroE6 cells; best crRNA of that screen (guide ACUUCAUCAAUUAUGUCAGUUU; chemistry not given here)
inhibition of virus replication (229E [3]; guide screening, MRC-5 cells, viral titer in supernatant by RT-qPCR (FIG. 11)): 95%
repression efficiency (viral RNA load) (SARS-CoV-2): 96%
protection of cells from death by 229E infection (in words) (229E [4]; 229E MOI 0.01, up to 5 day infection): protected the cells from death
protection of cells from death at different MOIs (in words) (229E [4]; 229E MOI up to 1.0 (FIG. 21A)): protected the cells from death
combination effect with Camostat mesylate (in words) (229E virus): promising synergistic effect
combination effect with IFNα 4b (in words) (229E virus): additive effect
fold decrease of virus titer (229E virus; PAC-MAN with the guide combined with IFNα 4b, vs NT): 10.1 fold
inhibition of virus replication (229E virus): 84%
fold decrease of virus titer (229E virus; [5]): 6.2 fold
